From patent publication US9850256B2, “Antibacterial basic biaromatic derivatives with aminoalkoxy substitution” (priority 2014, dated 2017)
Values after ≈ are worked out from the molar mass of the structure shown.

How the values were obtained:
Experiment in all cases: Bacterial growth minimal inhibitory concentration (microdilution, cation-adjusted Mueller-Hinton Broth)
S. aureus A798 = assay type: cell-based, Staphylococcus aureus; conditions: Staphylococcus aureus, A798; multiply-resistant strain (methicillin- and quinolone-resistant)
Procedure: (§1) Minimal Inhibitory Concentrations (MICs; mg/L) were determined in cation-adjusted Mueller-Hinton Broth by a microdilution method following the description given in “Methods for Dilution Antimicrobial Susceptibility Tests for Bacteria that Grow Aerobically”, Approved standard, 7th ed., Clinical and Laboratory Standards Institute (CLSI) Document M7-A7, Wayne, Pa., USA (2006).
(§2) All Example compounds were tested against several Gram positive and Gram negative bacteria. […] Staphylococcus aureus A798 is a multiply-resistant strain (methicillin- and quinolone-resistant), Klebsiella pneumoniae T6474 is a multiply-resistant strain (penicillin-, cephalosporin- and in particular quinolone-resistant), while E. coli ATCC25922 and Pseudomonas aeruginosa ATCC 27853 are quinolone-sensitive strains.

E. coli ATCC25922 = assay type: cell-based; conditions: Escherichia coli, ATCC25922; quinolone-sensitive strain
Procedure: as §1, §2

K. pneumoniae T6474 = assay type: cell-based, Klebsiella pneumoniae; conditions: Klebsiella pneumoniae, T6474; multiply-resistant strain (penicillin-, cephalosporin- and quinolone-resistant)
Procedure: as §1, §2

P. aeruginosa ATCC 27853 = assay type: cell-based, Pseudomonas aeruginosa; conditions: Pseudomonas aeruginosa, ATCC27853; quinolone-sensitive strain
Procedure: as §1, §2

MIC (S. aureus A798) [µg/mL]	MIC (E. coli ATCC25922) [µg/mL]	MIC (K. pneumoniae T6474) [µg/mL]	MIC (P. aeruginosa ATCC 27853) [µg/mL]	SMILES
8 (≈ 15.8 µM)	4 (≈ 7.91 µM)	16 (≈ 31.6 µM)	1 (≈ 1.98 µM)	NCCOc1ccnc(-c2ccnc(CNCC[C@H]3CN(c4ccc5c(n4)NC(=O)CO5)C(=O)O3)c2)c1 [Example $157, 6-[(S)-5-(2-{[4-(2-amino-ethoxy)-[2,4′]bipyridinyl-2′-ylmethyl]-amino}-ethyl)-2-oxo-oxazolidin-3-yl]-4H-pyrido[3,2-b][1,4]oxazin-3-one]
8 (≈ 15 µM)	16 (≈ 30.1 µM)	16 (≈ 30.1 µM)	16 (≈ 30.1 µM)	O=C1COc2ccc(N3C[C@H](CCNCc4cccc(-c5cc(OC[C@@H]6CCN6)cnn5)c4)OC3=O)nc2N1 [Example $182, 6-[(S)-5-(2-{3-[5-((S)-1-azetidin-2-ylmethoxy)-pyridazin-3-yl]-benzylamino}-ethyl)-2-oxo-oxazolidin-3-yl]-4H-pyrido[3,2-b][1,4]oxazin-3-one]
1 (≈ 1.79 µM)	2 (≈ 3.57 µM)	2 (≈ 3.57 µM)	2 (≈ 3.57 µM)	CN1CC[C@@H](Oc2cccc(-c3cccc(CNCC[C@H]4CN(c5ccc6c(c5)NC(=O)CS6)C(=O)O4)c3)n2)C1 [Example $168, 6-[(S)-5-(2-{3-[6-((R)-1-methyl-pyrrolidin-3-yloxy)-pyridin-2-yl]-benzylamino}-ethyl)-2-oxo-oxazolidin-3-yl]-4H-benzo[1,4]thiazin-3-one]
0.5 (≈ 0.918 µM)	1 (≈ 1.84 µM)	2 (≈ 3.67 µM)	1 (≈ 1.84 µM)	C[C@@H]1CNC[C@H]1Oc1cccc(-c2cccc(CNCC[C@H]3CN(c4ccc5c(n4)NC(=O)CO5)C(=O)O3)c2)n1 (relative stereo) [Example $173, 6-[(S)-5-(2-{3-[6-((3S*,4R*)-4-methyl-pyrrolidin-3-yloxy)-pyridin-2-yl]-benzylamino}-ethyl)-2-oxo-oxazolidin-3-yl]-4H-pyrido[3,2-b][1,4]oxazin-3-one]
4 (≈ 7.32 µM)	2 (≈ 3.66 µM)	4 (≈ 7.32 µM)	4 (≈ 7.32 µM)	CN1CC[C@H](Oc2cncc(-c3cncc(CNCC[C@H]4CN(c5ccc6c(n5)NC(=O)CO6)C(=O)O4)c3)n2)C1 [Example $146, 6-{(S)-5-[2-({5-[6-((S)-1-methyl-pyrrolidin-3-yloxy)-pyrazin-2-yl]-pyridin-3-ylmethyl}-amino)-ethyl]-2-oxo-oxazolidin-3-yl}-4H-pyrido[3,2-b][1,4]oxazin-3-one]
1 (≈ 1.7 µM)	2 (≈ 3.39 µM)	16 (≈ 27.1 µM)	2 (≈ 3.39 µM)	NCCN(CCN)CCOc1cccc(-c2cccc(CNCC[C@H]3CN(c4ccc5c(n4)NC(=O)CO5)C(=O)O3)c2)c1 [Example $155, 6-((S)-5-{2-[(3′-{2-[bis-(2-amino-ethyl)-amino]-ethoxy}-biphenyl-3-ylmethyl)-amino]-ethyl}-2-oxo-oxazolidin-3-yl)-4H-pyrido[3,2-b][1,4]oxazin-3-one]
0.5 (≈ 0.895 µM)	2 (≈ 3.58 µM)	4 (≈ 7.16 µM)	4 (≈ 7.16 µM)	C[C@@H]1CN(C)C[C@H]1Oc1cccc(-c2cccc(CNCC[C@H]3CN(c4ccc5c(n4)NC(=O)CO5)C(=O)O3)c2)n1 (relative stereo) [Example $177, 6-[(S)-5-(2-{3-[6-((3S*,4R*)-1,4-dimethyl-pyrrolidin-3-yloxy)-pyridin-2-yl]-benzylamino}-ethyl)-2-oxo-oxazolidin-3-yl]-4H-pyrido[3,2-b][1,4]oxazin-3-one]

Continued, compound first:

SMILES	MIC (S. aureus A798) [µg/mL]	MIC (E. coli ATCC25922) [µg/mL]	MIC (K. pneumoniae T6474) [µg/mL]	MIC (P. aeruginosa ATCC 27853) [µg/mL]
O=C1COc2ccc(N3C[C@H](CCNCc4cccc(-c5cccc(OC6CNC6)n5)c4)OC3=O)nc2N1 [Example $107, 6-[(S)-5-(2-{3-[6-(azetidin-3-yloxy)-pyridin-2-yl]-benzylamino}-ethyl)-2-oxo-oxazolidin-3-yl]-4H-pyrido[3,2-b][1,4]oxazin-3-one]	1 (≈ 1.94 µM)	0.5 (≈ 0.968 µM)	2 (≈ 3.87 µM)	0.5 (≈ 0.968 µM)
CN1CC[C@@H](Oc2cccc(-c3cccc(CNCC[C@H]4CN(c5ccc6c(n5)NC(=O)CO6)C(=O)O4)c3)n2)C1 [Example $120, 6-[(S)-5-(2-{3-[6-((R)-1-methyl-pyrrolidin-3-yloxy)-pyridin-2-yl]-benzylamino}-ethyl)-2-oxo-oxazolidin-3-yl]-4H-pyrido[3,2-b][1,4]oxazin-3-one]	0.5 (≈ 0.918 µM)	1 (≈ 1.84 µM)	2 (≈ 3.67 µM)	2 (≈ 3.67 µM)
CN1CC[C@H]1COc1cccc(-c2cccc(CNCC[C@H]3CN(c4ccc5c(n4)NC(=O)CO5)C(=O)O3)c2)c1 [Example $104, 6-[(S)-5-(2-{[3′-((S)-1-methyl-azetidin-2-ylmethoxy)-biphenyl-3-ylmethyl]-amino}-ethyl)-2-oxo-oxazolidin-3-yl]-4H-pyrido[3,2-b][1,4]oxazin-3-one]	1 (≈ 1.84 µM)	2 (≈ 3.68 µM)	4 (≈ 7.36 µM)	4 (≈ 7.36 µM)
NCCCOc1cccc(-c2cccc(CNCC[C@H]3CN(c4ccc5c(n4)NC(=O)CO5)C(=O)O3)c2)c1 [Example 3, 6-[(S)-5-(2-{[3′-(3-amino-propoxy)-biphenyl-3-ylmethyl]-amino}-ethyl)-2-oxo-oxazolidin-3-yl]-4H-pyrido[3,2-b][1,4]oxazin-3-one]	2 (≈ 3.86 µM)	1 (≈ 1.93 µM)	2 (≈ 3.86 µM)	2 (≈ 3.86 µM)
NCCCCCOc1cccc(-c2cccc(CNCC[C@H]3CN(c4ccc5c(n4)NC(=O)CO5)C(=O)O3)c2)n1 [Example 20, 6-[(S)-5-(2-{3-[6-(5-amino-pentyloxy)-pyridin-2-yl]-benzylamino}-ethyl)-2-oxo-oxazolidin-3-yl]-4H-pyrido[3,2-b][1,4]oxazin-3-one]	0.5 (≈ 0.915 µM)	2 (≈ 3.66 µM)	8 (≈ 14.6 µM)	2 (≈ 3.66 µM)
COc1cc(O[C@H]2CCN(C)C2)nc(-c2cccc(CNCC[C@H]3CN(c4ccc5c(n4)NC(=O)CO5)C(=O)O3)c2)c1 [Example $136, 6-[(S)-5-(2-{3-[4-methoxy-6-((S)-1-methyl-pyrrolidin-3-yloxy)-pyridin-2-yl]-benzylamino}-ethyl)-2-oxo-oxazolidin-3-yl]-4H-pyrido[3,2-b][1,4]oxazin-3-one]	0.25 (≈ 0.435 µM)	1 (≈ 1.74 µM)	2 (≈ 3.48 µM)	2 (≈ 3.48 µM)
NCCOc1cncc(-c2cccc(CNCC[C@H]3CN(c4ccc5c(n4)NC(=O)CO5)C(=O)O3)c2)n1 [Example 15, 6-[(S)-5-(2-{3-[6-(2-amino-ethoxy)-pyrazin-2-yl]-benzylamino}-ethyl)-2-oxo-oxazolidin-3-yl]-4H-pyrido[3,2-b][1,4]oxazin-3-one]	0.5 (≈ 0.989 µM)	1 (≈ 1.98 µM)	2 (≈ 3.96 µM)	1 (≈ 1.98 µM)
C[C@@H](N)COc1cccc(-c2cccc(CNCC[C@H]3CN(c4ccc5c(n4)NC(=O)CO5)C(=O)O3)c2)n1 [Example 17, 6-[(S)-5-(2-{3-[6-((R)-2-amino-propoxy)-pyridin-2-yl]-benzylamino}-ethyl)-2-oxo-oxazolidin-3-yl]-4H-pyrido[3,2-b][1,4]oxazin-3-one]	0.5 (≈ 0.964 µM)	1 (≈ 1.93 µM)	2 (≈ 3.86 µM)	1 (≈ 1.93 µM)
O=C1COc2ccc(N3C[C@H](CCNCc4cccc(-c5cccc(OCCN6CCCCC6)c5)c4)OC3=O)nc2N1 [Example 13, 6-[(S)-2-oxo-5-(2-{[3′-(2-piperidin-1-yl-ethoxy)-biphenyl-3-ylmethyl]-amino}-ethyl)-oxazolidin-3-yl]-4H-pyrido[3,2-b][1,4]oxazin-3-one]	0.5 (≈ 0.875 µM)	2 (≈ 3.5 µM)	2 (≈ 3.5 µM)	8 (≈ 14 µM)
